“And” between values parts separate entries of the source, which are not always exact repeats. Identical values can stand only once.

The test can be described thus: Agonist activity at recombinant human CB1 receptor expressed in CHO-K1 cells assessed as increase in cAMP accumulation after 20 mins by HTRF assay. For orientation: Changes in cAMP serve as a functional read-out for many G protein-coupled receptors.
By EC50 is commonly meant the concentration giving half of the maximal effect. `COc1cc(OC(=O)NCCCCN2CCN(c3cccc(Cl)c3Cl)CC2)ccc1-c1ccccc1`: the EC50 is 220 nM and 219 nM.
Regarding `CCCCCCC(C)(C)c1ccc2c(c1)OC(C)(C)[C@@H]1CCC(CO)=C[C@@H]21`, the half-maximal effective concentration (EC50) stood at 1.2 nM.
For the molecule `CCCC(C)(C)c1ccc2c(c1)OC(C)(C)[C@@H]1CCC(C)=C[C@@H]21`, the EC50 was found to be 667 nM.
In the case of `COc1ccccc1N1CCN(CCCCNC(=O)Oc2ccc3c(c2)[nH]c2ccccc23)CC1`, the EC50 was 2300 nM and 2340 nM.
Regarding `CCCCCc1cc(O)c2c(c1)OC(C)(C)[C@@H]1CCC(C)=C[C@@H]21` [(10R,10aR)-6,6,9-Trimethyl-3-pentyl-6a,7,8,10a-tetrahydro-6H-benzo[c]chromen-1-ol], the 50% effective concentration (EC50) came to 10 nM.

Source of the values: BindingDB's records for doi:10.1021/acs.jmedchem.6b01578 (University of Bologna, 2017).
